This note sets out measurements from patent US9000154B2, “Rho kinase inhibitors” (Boehringer Ingelheim International GmbH, priority 2010, dated 2015).

The target of experiment [1] is T1, ROCKII (1-543) (Homo sapiens, UniProt O75116). Nature of the experiment: Luciferin-Luciferase Assay (PKLight ATP detection). The arrangement: ROCKII (1-543) (62,408 Da) was diluted in assay buffer. The format is biochemical. Conditions: 7.5 nM ROCKII (1-543), 750 nM ATP. The procedure:
1. Luciferin-Luciferase Assay
The activity of ROCKII (1-543) kinase was measured utilizing Cambrex PKLight ATP Detection Reagent, a homogeneous assay technology using luciferin-luciferase to quantify residual ATP. The assay was performed in 384-well low-volume, white, non-binding surface microtiter plates (Corning). The assay buffer was 25 mM HEPES, pH 7.5, 10 mM MgCl2, 50 mM KCl, 0.2% BSA, 0.01% CHAPS, 100 μM Na3VO4 and 0.5 mM DTT. Test compounds, dissolved in neat DMSO at 500 μg/mL, were serially diluted for dose response for a final starting concentration of 3 μg/mL in 1% DMSO of assay buffer. ROCKII (1-543) (62,408 Da) was diluted in assay buffer to a final concentration of 7.5 nM in a total volume of 15 μL. Positive controls were reaction mixtures containing no test compound; negative controls (blanks) were reaction mixtures containing no kinase. After 15 minutes of pre-incubation of the test compounds with the kinase, a mixture of ATP and peptide substrate (AKRRRLSSLRA) in assay buffer was added to each well for a final concentration of 750 nM ATP and 500 nM peptide, respectively. After 90 minutes of incubation of the kinase reaction at 28° C. temperature, 10 μL of PKLight ATP Detection Reagent (warmed to room temperature previously) was added to each well. The assay plate was incubated at room temperature for additional 15 minutes and then read on an Analyst in luminescence mode. Dose-response experiments for each of the test compounds were conducted in quadruplet. IC50 values of test compounds represent 50% response of the positive control from the dose-response curve.
Target sequence in this assay (O75116 1-543): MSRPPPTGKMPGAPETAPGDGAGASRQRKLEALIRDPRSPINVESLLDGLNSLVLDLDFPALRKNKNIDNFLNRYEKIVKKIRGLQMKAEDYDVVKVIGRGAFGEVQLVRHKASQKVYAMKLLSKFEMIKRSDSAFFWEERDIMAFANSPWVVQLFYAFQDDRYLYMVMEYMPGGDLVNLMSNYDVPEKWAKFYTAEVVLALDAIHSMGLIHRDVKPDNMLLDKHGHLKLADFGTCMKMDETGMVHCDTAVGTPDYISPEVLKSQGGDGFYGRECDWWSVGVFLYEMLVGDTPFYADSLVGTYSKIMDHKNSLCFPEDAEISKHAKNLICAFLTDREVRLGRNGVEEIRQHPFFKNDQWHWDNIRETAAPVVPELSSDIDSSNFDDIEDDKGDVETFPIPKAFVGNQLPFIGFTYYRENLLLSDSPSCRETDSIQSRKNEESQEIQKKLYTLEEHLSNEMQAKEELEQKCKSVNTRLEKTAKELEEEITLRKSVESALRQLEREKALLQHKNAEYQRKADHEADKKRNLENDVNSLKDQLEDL

The target in experiment [2] is T1, ROCKII (1-543). Nature of the experiment: IMAP Assay (fluorescence polarization, FAM S6 peptide). The following applies: IMAP FP, 1 nM ROCKII (1-543), 100 μM ATP; read-out: Assay 2 IC50. The format is biochemical. More on the design: 3 nM ROCKII (1-543) diluted in kinase reaction buffer. The method, then: This assay is performed using FAM S6 substrate peptide (Catalogue #R7184) and IMAP FP Screening Express Kit detection reagents from Molecular Devices (Sunnyvale, Calif.) in IMAP kinase reaction buffer (Tris-HCl, pH 7.2, 10 mM MgCl2, 0.05% NaN3, 0.1% phosphate-free BSA) containing 1 mM DTT. Test compounds dissolved in neat DMSO at 0.3 mg/mL are serially diluted 1 to 3 for concentration response in 100% DMSO. The DMSO serial dilutions are further diluted 33.33-fold in kinase reaction buffer, and 10 μL of this buffer dilution is transferred to Corning black 96-well half area NBS plates for a final top concentration of 3 μg/mL in 1% DMSO. 10 μL aliquot of 3 nM ROCKII (1-543) diluted in kinase reaction buffer is added to each assay well for a final concentration of 1 nM kinase. 10 μL of a mixture of 600 nM FAM S6 peptide and 300 μM ATP diluted in kinase reaction buffer is added to each well for a final concentration of 200 nM peptide and 100 μM ATP. The kinase reaction mixture is incubated for 60 minutes at room temperature. Positive controls are reaction mixtures containing no test compound and negative controls (blanks) are reaction mixtures containing no kinase. The kinase reaction is stopped by addition of 60 μL IMAP progressive binding reagent (Catalog #R7284) diluted 400-fold in 1× Binding buffer A. After 30 min of incubation at room temperature, the plates are read for fluorescence polarization on Analyst Plate Reader using Ex 485 nm, Em 530 nm, and FL 505 dichroic mirror. The mP signals are converted to percent of control (POC) values using the formula: POC=100*(Signal−BCTRL)÷(PCTRL−BCTRL)
Where Signal is the test well signal, BCTRL is the average of background (negative control) well signals on the plate and PCTRL is the average of positive control well signals on the plate. For the concentration-responsive compounds, POC as a function of test compound concentration is fitted to a 4-parameter logistic equation of the form: Y=A+(B−A)/[1+(x/C)D]
Where A, B, C, and D are fitted parameters (parameter B is fixed at zero POC), and x and y are the independent and dependent variables, respectively. The IC50 is determined as the inflection point parameter, C.
Target sequence in this assay (O75116 1-543, species assumed): as the sequence (O75116 1-543) above
Background: In fluorescence polarisation assays a small probe gives low polarisation when free and higher when bound to something large.

For `N#Cc1ccc(-c2cnn(Cc3cccc(C(=O)Nc4nc5c(s4)CC(N4CCCC(F)(F)C4)CC5)c3)c2)cc1` (centres unmarked) [Compound 71, 3-[4-(4-Cyano-phenyl)-pyrazol-1-ylmethyl]-N-[6-(3,3-difluoro-piperidin-1-yl)-4,5,6,7-tetrahydro-benzothiazol-2-yl]-benzamide], the midpoint of inhibition on ROCKII (1-543) [1], the IC50, lay at 7.2 nM.

For the compound `N#Cc1cccc(-c2ccnc(Cc3cccc(C(=O)Nc4nc5c(s4)C[C@@H](N4CCOCC4)CC5)c3)n2)c1` [Compound 36, 3-[4-(3-Cyano-phenyl)-pyrimidin-2-ylmethyl]-N—((S)-6-morpholin-4-yl-4,5,6,7-tetrahydro-benzothiazol-2-yl)-benzamide], the 50% inhibitory concentration (IC50) (in general, the midpoint of a concentration-inhibition curve) on ROCKII (1-543) [1] came to 9.9 nM.

For the compound `COCCN[C@@H]1CCc2nc(NC(=O)c3cccc(Cn4cc(-c5ccc(C#N)cc5)cn4)c3)sc2C1` [Compound 57, 3-[4-(4-Cyano-phenyl)-pyrazol-1-ylmethyl]-N—[(R)-6-(2-methoxy-ethylamino)-4,5,6,7-tetrahydro-benzothiazol-2-yl]-benzamide], the IC50 against ROCKII (1-543) [1] was found to be 1.9 nM.

Consider `CN1CCN(C2CCc3nc(NC(=O)c4cccc(Cn5cc(-c6ccc(C#N)cc6)cn5)c4)sc3C2)CC1` (centres unmarked) [Compound 11, 3-[4-(4-Cyano-phenyl)-pyrazol-1-ylmethyl]-N-[6-(4-methyl-piperazin-1-yl)-4,5,6,7-tetrahydro-benzothiazol-2-yl]-benzamide], for which the IC50 on ROCKII (1-543) [2] was 0.58 nM.

For `CN(C1CC1)C1CCc2nc(NC(=O)c3cccc(Cn4cc(-c5ccc(C#N)cc5)cn4)c3)sc2C1` (centres unmarked) [Compound 67, 3-[4-(4-Cyano-phenyl)-pyrazol-1-ylmethyl]-N-[6-(cyclopropyl-methyl-amino)-4,5,6,7-tetrahydro-benzothiazol-2-yl]-benzamide], half-maximal inhibition against ROCKII (1-543) [1] (IC50) required 4.5 nM.

Regarding `COCCN[C@H]1CCc2nc(NC(=O)c3cccc(Cn4cc(-c5ccc(C#N)cc5)nn4)c3)sc2C1` [Compound 48, 3-[4-(4-Cyano-phenyl)-[1,2,3]triazol-1-ylmethyl]-N—[(S)-6-(2-methoxy-ethylamino)-4,5,6,7-tetrahydro-benzothiazol-2-yl]-benzamide], the IC50 on ROCKII (1-543) [2] worked out at 0.32 nM.

With `CN1CCN([C@H]2CCc3nc(NC(=O)c4cccc(Cn5cc(-c6ccc(C#N)cc6)cn5)c4)sc3C2)CC1` [Compound 25, 3-[4-(4-Cyano-phenyl)-pyrazol-1-ylmethyl]-N—[(S)-6-(4-methyl-piperazin-1-yl)-4,5,6,7-tetrahydro-benzothiazol-2-yl]-benzamide], the IC50 at ROCKII (1-543) [2] was 0.65 nM.

On to `N#Cc1ccc(-c2cn(Cc3cccc(C(=O)Nc4nc5c(s4)C[C@@H](N4CCOCC4)CC5)c3)nn2)cc1` [Compound 8, 3-[4-(4-Cyano-phenyl)-[1,2,3]triazol-1-ylmethyl]-N—((S)-6-morpholin-4-yl-4,5,6,7-tetrahydro-benzothiazol-2-yl)-benzamide], for which the IC50 at ROCKII (1-543) [2] amounted to 1 nM.

Regarding `CN(CCC(F)(F)F)[C@H]1CCc2nc(NC(=O)c3cccc(Cn4cc(-c5ccc(C#N)cc5)nn4)c3)sc2C1` [Compound 31, 3-[4-(4-Cyano-phenyl)-[1,2,3]triazol-1-ylmethyl]-N-{(S)-6-[methyl-(3,3,3-trifluoro-propyl)-amino]-4,5,6,7-tetrahydro-benzothiazol-2-yl}-benzamide], the IC50 on ROCKII (1-543) [2] came to 3.1 nM.

Regarding `CN(C)[C@H]1CCc2nc(NC(=O)c3cccc(Cn4cc(-c5ccc(C#N)cc5)cn4)c3)sc2C1` [Compound 5, 3-[4-(4-Cyano-phenyl)-pyrazol-1-ylmethyl]-N—((S)-6-dimethylamino-4,5,6,7-tetrahydro-benzothiazol-2-yl)-benzamide], the IC50 at ROCKII (1-543) [2] amounted to 0.2 nM.

`COCCN(C)C1CCc2nc(NC(=O)c3cccc(Cn4cc(-c5ccc(C#N)cc5)cn4)c3)sc2C1` (centres unmarked) [Compound 14, 3-[4-(4-Cyano-phenyl)-pyrazol-1-ylmethyl]-N-{6-[(2-methoxy-ethyl)-methyl-amino]-4,5,6,7-tetrahydro-benzothiazol-2-yl}-benzamide]: the IC50 at ROCKII (1-543) [2] stood at 0.41 nM.

As to `N#CCCN[C@H]1CCc2nc(NC(=O)c3cccc(Cn4cc(-c5ccc(C#N)cc5)nn4)c3)sc2C1` [Compound 13, N—[(S)-6-(2-Cyano-ethylamino)-4,5,6,7-tetrahydro-benzothiazol-2-yl]-3-[4-(4-cyano-phenyl)-[1,2,3]triazol-1-ylmethyl]-benzamide], the IC50 on ROCKII (1-543) [2] is 1 nM.

In the case of `N#CCCN[C@H]1CCc2nc(NC(=O)c3cccc(Cn4cc(-c5ccc(C#N)cc5)cn4)c3)sc2C1` [Compound 33, N—[(S)-6-(2-Cyano-ethylamino)-4,5,6,7-tetrahydro-benzothiazol-2-yl]-3-[4-(4-cyano-phenyl)-pyrazol-1-ylmethyl]-benzamide], the IC50 on ROCKII (1-543) [2] was determined as 0.35 nM.

Consider `COCCN(C)[C@H]1CCc2nc(NC(=O)c3cccc(Cn4cc(-c5ccc(C#N)cc5)cn4)c3)sc2C1` [Compound 46, 3-[4-(4-Cyano-phenyl)-pyrazol-1-ylmethyl]-N-{(S)-6-[(2-methoxy-ethyl)-methyl-amino]-4,5,6,7-tetrahydro-benzothiazol-2-yl}-benzamide], for which, at ROCKII (1-543) [2], the IC50 is 0.34 nM.

For the compound `CN(C)[C@H]1CCc2nc(NC(=O)c3cccc(Cn4cc(-c5ccc(C#N)cc5)nn4)c3)sc2C1` [Compound 4, 3-[4-(4-Cyano-phenyl)-[1,2,3]triazol-1-ylmethyl]-N—((S)-6-dimethylamino-4,5,6,7-tetrahydro-benzothiazol-2-yl)-benzamide], the IC50 at ROCKII (1-543) [2] came out at 0.49 nM.

On to `N#Cc1ccc(-c2cnn(Cc3cccc(C(=O)Nc4nc5c(s4)C[C@@H](N)CC5)c3)c2)cc1` [Compound 28, N—((S)-6-Amino-4,5,6,7-tetrahydro-benzothiazol-2-yl)-3-[4-(4-cyano-phenyl)-pyrazol-1-ylmethyl]-benzamide], for which the IC50 at ROCKII (1-543) [2] is 0.35 nM.

As for `N#Cc1ccc(-c2cn(Cc3cccc(C(=O)Nc4nc5c(s4)C[C@@H](N)CC5)c3)nn2)cc1` [Compound 29, N—((S)-6-Amino-4,5,6,7-tetrahydro-benzothiazol-2-yl)-3-[4-(4-cyano-henyl)-[1,2,3]triazol-1-ylmethyl]-benzamide], the IC50 on ROCKII (1-543) [2] was 0.73 nM.

In the case of `N#Cc1ccc(-c2cnn(Cc3cccc(C(=O)Nc4nc5c(s4)C[C@@H](N4CCOCC4)CC5)c3)c2)cc1` [Compound 7, 3-[4-(4-Cyano-phenyl)-pyrazol-1-ylmethyl]-N—((S)-6-morpholin-4-yl-4,5,6,7-tetrahydro-benzothiazol-2-yl)-benzamide], the IC50 at ROCKII (1-543) [2] was determined as 0.4 nM.

For `N#Cc1ccc(-c2cnn(Cc3cccc(C(=O)Nc4nc5c(s4)C[C@@H](NCCC(F)(F)F)CC5)c3)c2)cc1` [Compound 20, 3-[4-(4-Cyano-phenyl)-pyrazol-1-ylmethyl]-N—[(S)-6-(3,3,3-trifluoro-propylamino)-4,5,6,7-tetrahydro-benzothiazol-2-yl]-benzamide], the IC50 on ROCKII (1-543) [2] was 0.47 nM.

With `CN1CCN(C2CCc3nc(NC(=O)c4cccc(Cn5cc(-c6ccc(C#N)cc6)nn5)c4)sc3C2)CC1` (centres unmarked) [Compound 23, 3-[4-(4-Cyano-phenyl)-[1,2,3]triazol-1-ylmethyl]-N-[6-(4-methyl-piperazin-1-yl)-4,5,6,7-tetrahydro-benzothiazol-2-yl]-benzamide], the IC50 on ROCKII (1-543) [2] amounted to 1.3 nM.
